{"source": "patent US11149022B2", "about": "“Antagonists of the muscarinic acetylcholine receptor M4” (Vanderbilt University, priority 2017, dated 2021)", "key": {"[1]": {"system": "haloperidol-induced catalepsy", "assay": "haloperidol-induced catalepsy, a model of parkinsonian motor disability", "type": "in vivo, mice", "excerpt": "Furthermore, haloperidol-induced catalepsy, a model of parkinsonian motor disability, is reduced in M4 knockout mice as compared to wild-type controls. […] The reversal by scopolamine was uncommonly robust and more pronounced than we observe with agents targeting a number of other targets being evaluated for potential antiparkinsonian effects, including metabotropic glutamate (mGlu) receptors mGlu4 or mGlu5, A2A adenosine receptors, and NMDA receptors. […] Taken together with the extensive studies of M4 modulation of basal ganglia and motor function, these studies provide compelling evidence that M4 is the dominant mAChR subtype involved in the antiparkinsonian effects of non-selective mAChR antagonists and provide support for discovery and development of selective M4 antagonists for treatment of neurodegenerative disease such as PD, dystonia, tardive dyskinesia and other movement disorders."}, "locomotor activity": {"system": "locomotor activity", "conditions": "M4 knockout mice, but not the other four mAChR subtypes (M1-3,5); cited from earlier work"}}}
{"smiles": "CN1[C@@H]2C[C@@H](OC(=O)[C@H](CO)c3ccccc3)C[C@H]1[C@@H]1O[C@@H]12", "note": "[scopolamine]", "values": [{"measurement": "reduction of catalepsy induced by haloperidol", "setting": "[1]; M4 KO mice", "value": "ineffective"}, {"measurement": "reversal of catalepsy induced by haloperidol", "setting": "[1]; WT mice", "value": "completely reversed"}, {"measurement": "locomotor-activating effects", "setting": "locomotor activity", "value": "dramatically reduced"}]}
